Series [1] in a line: Evaluation of pharmacokinetic parameters for Vardenafil evaluated following single oral administration of Vardenafil to healthy male volunteers. The series is classed as ADME, organism-based. As to conditions: human, in vivo, dose 20 mg, dosed compound id 28, dosed compound name VARDENAFIL HYDROCHLORIDE, gender male, regimen Single dose, tissue Plasma.
For a further series, the system named is Homo sapiens. The series can be described thus: Mean steady-state volume of distribution (Vss) for Vardenafil following oral doses of Vardenafil. The series is classed as ADME, organism-based. As to conditions: in vivo, dose 20 mg, dosed compound id 28, dosed compound name VARDENAFIL HYDROCHLORIDE, gender male, regimen Multiple dose, tissue Plasma.

What is called Tmax is the time at which the peak concentration occurs. By half-life is commonly meant the time needed for the level to fall by half in the phase considered. A low value points to fast loss. With `CCCc1nc(C)c2c(=O)nc(-c3cc(S(=O)(=O)N4CCN(CC)CC4)ccc3OCC)[nH]n12.Cl` [VARDENAFIL HYDROCHLORIDE], the time of peak concentration (Tmax) in series [1] (dietary status Fasting) fell in the range of 0.5 to 2 h. The half-life in series [1] was in the range of 240 to 300 min. For the same compound, the Vss in the series with Homo sapiens was 208 L.

Values taken from ChEMBL document CHEMBL3832027, “DailyMed|setid=517fbb02-8793-4647-83c7-25a91be49622 | LEVITRA - vardenafil hydrochloride tablet, film coated|PD-Rx Pharmaceuticals, Inc”.
